Data on seven molecules can be found in paper PMC12302229, “Synergy of triazolyl substituents at C1 and C3 of galactose for high-affinity and selective galectin-4C inhibition” (RSC Chemical Biology, 2025).

One assay addresses T1, galectin-4N (Homo sapiens, UniProt P56470).
T1 construct: called “N” for the N-terminal CRD and “C” for the C-terminal
T1 sequence (P56470 19-150 limits assumed): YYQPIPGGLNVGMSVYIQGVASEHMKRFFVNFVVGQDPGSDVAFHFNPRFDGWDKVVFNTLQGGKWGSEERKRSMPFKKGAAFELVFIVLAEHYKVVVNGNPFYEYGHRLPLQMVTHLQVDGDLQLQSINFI
Description: competitive fluorescence polarization assay, galectin-4N. The note with it: Kd and SEM from 3–6 single point measurements, read-out: Dissociation constants, Galectin-4N. It is filed as binding. How it is done: (§1) Affinities of 1c–1z for galectin-1, -3, -4C, -4N, -7, -8C, -8N, -9C, and -9N were measured using an established fluorescence polarization assay[57] with reported probes and conditions.[19] […]
(§2) triazol-1-yl]-3’-(3,5-di-methoxybenzamido)-1,1’-sulfanediyl-di-β-D-galactopyranoside) concentration of 20 nM, respectively. Inhibitors were dissolved in dimethylsulfoxide (analytical grade) to a concentration of 20 mM, diluted with PBS to 3–6 different concentrations, and tested in duplicate twice for galectin affinity using a competitive fluorescence polarization assay as earlier described.3 The highest inhibitor concentrations tested were 1 mM due to solubility limitations at higher concentration. Dissociation constants average and SEM were calculated from two to eight single point measurements showing between 20–80% inhibition. […]
For orientation: Polarisation of emitted light reports the rotation of a fluorescent probe.

Assay [1] has as its target T2, galectin-3 (Homo sapiens, UniProt P17931).
T2 construct: made in house
As to the kind of experiment: competitive fluorescence polarization assay, galectin-3. The note with it: Kd and SEM from 3–6 single point measurements, > values estimated, no apparent binding at highest concentration, read-out: Dissociation constants, Galectin-3. As for the experimental part: as §1
(§3) Fluorescence polarization experiments
(§4) Human galectin-11 and galectin-32 were expressed and purified as earlier described. Fluorescence polarization experiments were performed on a PheraStarFS plate reader with software PHERAstar Mars version 2.10 R3 (BMG, Offenburg, Germany). Specific experimental conditions were a galectin-1 concentration of 0.5 µM together with the fluorescent probe (3,3’-dideoxy-3-[4-(fluorescein-5-yl-carbonylaminomethyl)-1H-1,2,3-triazol-1-yl]-3’-(3,5-di-methoxybenzamido)-1,1’-sulfanediyl-di-β-D-galactopyranoside 1 concentration of 20 nM and a galectin-3 concentration of 0.2 µM together with the fluorescent probe (3,3’-dideoxy-3-[4-(fluorescein-5-yl-carbonylaminomethyl)-1H-1,2,3- […]
as §2

In assay [2] the target is T3, galectin-4C (Homo sapiens, UniProt P56470).
T3 construct: made in house; host or cells: E. coli BL-21 (DE3)
T3 sequence (P56470 185-323): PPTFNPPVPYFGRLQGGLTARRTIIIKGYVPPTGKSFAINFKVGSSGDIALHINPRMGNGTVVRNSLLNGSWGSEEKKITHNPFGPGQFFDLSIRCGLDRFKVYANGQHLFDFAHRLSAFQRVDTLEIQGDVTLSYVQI
As to the kind of experiment: competitive fluorescence polarization assay, galectin-4C. It is filed as binding. As to conditions: for Kd: fluorescence polarization, x/y cells = only two data points revealed inhibition, both shown, > values estimated, no apparent binding at highest concentration, read-out: Dissociation constants, Galectin-4C. As for the experimental part:
Affinities of 1c–1z for galectin-1, -3, -4C, -4N, -7, -8C, -8N, -9C, and -9N were measured using an established fluorescence polarization assay[57] with reported probes and conditions.[19]
Recombinant human galectin-4 C-terminal carbohydrate recognition domain was expressed and purified as previously reported.[57,70] Briefly, BL-21 (DE3) E. coli cells containing galectin-4C (amino acid sequence 185–323) was expressed, lysed by sonication and purified by affinity chromatography on a lactosyl-Sepharose column. Galectin-4C protein was eluted using 50 mM β-lactose in PBS, pH 7.4. Galectin-4C was then further gel purified using a Superdex 200/60 column (GE Healthcare) previously equilibrated in PBS, pH 7.4. The peak fractions collected containing galectin-4C were pooled and concentrated to 6.5 mg mL^−1 using an AmiconUltra 3K molecular weight cut-off centrifugal concentrator (Millipore, Billerica, MA, USA) and used directly in crystallisation studies. […]
as §2

Assay [3] deals with T4, galectin-1 (Homo sapiens, UniProt P09382).
T4 construct: made in house
As to the kind of experiment: competitive fluorescence polarization assay, galectin-1. It is filed as binding. The note with it: fluorescence polarization; Kd and SEM from 3–6 single point measurements; read-out: Dissociation constants, Galectin-1. As for the experimental part:
as §1, §3, §4, §2

In assay [4] the target is T2, galectin-3. The note with it: Table 1 reference saccharides; read-out: Dissociation constants, Galectin-3; cited from earlier work.
Assay [5] deals with T4, galectin-1. The note with it: Table 1 reference saccharides; read-out: Dissociation constants, Galectin-1; cited from earlier work.
Assay [6] deals with T3, galectin-4C. As to conditions: Table 1 reference saccharides; read-out: Dissociation constants, Galectin-4C; cited from earlier work.

Where two headings read alike, the source gives them in different places.

T4 sequence (P09382 whole entry): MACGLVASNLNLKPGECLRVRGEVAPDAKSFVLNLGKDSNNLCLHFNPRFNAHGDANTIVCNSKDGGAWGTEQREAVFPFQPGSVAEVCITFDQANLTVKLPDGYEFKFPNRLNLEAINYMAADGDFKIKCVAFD
T2 sequence (P17931 whole entry): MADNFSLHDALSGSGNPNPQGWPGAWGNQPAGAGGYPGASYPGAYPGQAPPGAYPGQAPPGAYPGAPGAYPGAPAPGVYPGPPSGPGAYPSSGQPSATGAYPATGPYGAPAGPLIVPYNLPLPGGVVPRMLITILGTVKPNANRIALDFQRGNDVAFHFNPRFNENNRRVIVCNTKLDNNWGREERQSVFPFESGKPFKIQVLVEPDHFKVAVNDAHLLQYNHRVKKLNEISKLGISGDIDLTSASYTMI

On to `OC[C@H]1O[C@@H](c2cn(-c3ccccc3F)nn2)[C@H](O)[C@@H](n2cc(-c3ccccc3)nn2)[C@H]1O` [Compound 16a, 1,3-Dideoxy-1-(1-(2-fluorophenyl)-1H-1,2,3-triazol-4-yl)-3-(4-(phenyl)-1H-1,2,3-triazolyl)-β-D-galactopyranosyl], for which the Kd at galectin-4N is 90 ± 17 µM; on galectin-3 [1] it was 34 ± 1 µM; on galectin-4C [2], 18 ± 2 µM; on galectin-1 [3], 280 ± 39 µM.
Take `OC[C@H]1O[C@@H](c2cn(-c3ccccn3)nn2)[C@H](O)[C@@H](n2cc(-c3ccccc3)nn2)[C@H]1O` [Compound 16b, 1,3-Dideoxy-1-(1-(2-pyridyl)-1H-1,2,3-triazol-4-yl)-3-(4-(phenyl)-1H-1,2,3-triazolyl)-β-D-galactopyranosyl]: the Kd is 240 ± 54 µM at galectin-4N, 34 ± 3 µM at galectin-3 [1], 9.6 ± 2.3 µM on galectin-4C [2] and 180 ± 1 µM on galectin-1 [3]. The “fold better galectin-4C affinity compared to 1a–b” value on galectin-4C [2] (effect of adding the C3 phenyltriazolyl) is reported as no more than 79 fold.
In the case of `OC[C@H]1O[C@@H](Cn2cc(-c3ccc(F)cc3)nn2)[C@H](O)[C@@H](n2cc(-c3ccccc3)nn2)[C@H]1O` [Compound 24a], the Kd on galectin-4N is 130 ± 20 µM; on galectin-3 [1], 200 ± 32 µM; at galectin-4C [2], 9.5 ± 1.3 µM; at galectin-1 [3], 220 ± 10 µM. The “fold stronger affinity for galectin-4C compared to galectin-1 and galectin-3” value on galectin-4C [2] (ratio of Kd) was found to be 20 fold. Moreover, the “galectin-4C selectivity over other galectins” value at galectin-4C [2] (ratio of Kd) was “twenty-onefold and up to thirty-sevenfold”.
For the molecule `OC[C@H]1O[C@@H](Cn2cc(-c3ccc(C(F)(F)F)cc3)nn2)[C@H](O)[C@@H](n2cc(-c3ccccc3)nn2)[C@H]1O` [Compound 24b, 1-((4-(1-Phenyl-1H-1,2,3-triazol-4-yl)-1,3-dideoxy-β-D-galactopyranosyl)methyl)-4-(4-(trifluoromethyl)phenyl)-1H-1,2,3-triazole], the Kd is 760 ± 32 µM on galectin-4N, 720 ± 78 µM at galectin-3 [1], 12 ± 1.7 µM at galectin-4C [2] and 440 ± 68 µM on galectin-1 [3]. At galectin-4C [2] (ratio of Kd), the “galectin-4C selectivity over other galectins” value was “twenty-onefold and up to thirty-sevenfold”.
In the case of `OC[C@H]1O[C@@H](Cn2cc(-c3ccccc3)nn2)[C@H](O)[C@@H](n2cc(-c3ccccc3)nn2)[C@H]1O` [Compound 24c, 1-((4-(1-Phenyl-1H-1,2,3-triazol-4-yl)-1,3-dideoxy-β-D-galactopyranosyl)methyl)-4-phenyl-1H-1,2,3-triazole], the Kd is 290 ± 32 µM at galectin-4N, 90 ± 13 µM on galectin-3 [1], 19 ± 2.9 µM on galectin-4C [2] and 140 ± 5 µM on galectin-1 [3].
Turning to `OC[C@H]1O[C@@H](Cn2cc(-c3cc(F)c(F)c(F)c3)nn2)[C@H](O)[C@@H](n2cc(-c3ccccc3)nn2)[C@H]1O` [Compound 24d], the Kd on galectin-4N is 130 ± 23 µM; at galectin-3 [1], 91 ± 2 µM; at galectin-4C [2] it was 22 ± 2.8 µM; on galectin-1 [3], 240 ± 5 µM.
In the case of `CO[C@@H]1O[C@H](CO)[C@@H](O[C@@H]2O[C@H](CO)[C@H](O)[C@H](O)[C@H]2O)[C@H](O)[C@H]1O` [β-Me Lac, methyl β-lactoside], the Kd on galectin-3 [4] is 220 µM; at galectin-1 [5], 190 µM; at galectin-4C [6], 2900 µM.
